Results as given in the supplement of paper PMC11414989.

Tests used:
Details in all cases: exposure window: 6 hpf to 120 hpf, static, assay age: 120 hpf (5 dpf)
[1] = test system: Danio rerio larvae (Tropical 5D); assay: mean distance moved of exposed larvae, dark phase (µm per frame (1/25 s)); higher = more movement
Protocol: (§1)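 Larval photomotor response in Tropical 5D wild-type zebrafish. Larvae were statically exposed to each chemical from 6 hpf to 5 dpf in 96-well plates; morphologically abnormal larvae were excluded. At 120 hpf, larvae were tracked with Ethovision XT (25 frames/s) over the 2nd cycle of 3 min light and 3 min dark. Values are the mean movement metric of exposed larvae per phase; same-plate control means (plate-dependent baseline) are given as conditions.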

[2] = test system: Danio rerio larvae (Tropical 5D); assay: mean distance moved of exposed larvae, light phase (µm per frame (1/25 s)); higher = more movement
Protocol: as §1

[3] = test system: Danio rerio larvae (Tropical 5D); assay: mean angular velocity of exposed larvae, dark phase (angular velocity (unit not stated)); higher = more movement
Protocol: as §1

[4] = test system: Danio rerio larvae (Tropical 5D); assay: mean angular velocity of exposed larvae, light phase (angular velocity (unit not stated)); higher = more movement
Protocol: as §1

CCN(CCOP(=O)(O)O)S(=O)(=O)C(F)(F)C(F)(F)C(F)(F)C(F)(F)C(F)(F)C(F)(F)C(F)(F)C(F)(F)F
0.25 µM
Details	mean angular velocity of exposed larvae	mean distance moved of exposed larvae
[1]	–	23.4
[2]	–	3.01
[3]	0.809	–
[4]	0.169	–

Cc1cccc2c1ccc1ccccc12 [1-Methylphenanthrene]
Details	mean angular velocity of exposed larvae, [3]	mean angular velocity of exposed larvae, [4]	mean distance moved of exposed larvae, [1]	mean distance moved of exposed larvae, [2]
1 µM	0.432	0.118	14.6	5.24
2.54 µM	0.487	0.119	16.3	4.47
6.45 µM	0.604	0.139	19.4	4.85
16.4 µM	0.563	0.133	17.5	5.17
35 µM	0.642	0.126	21.2	4.57
74.8 µM	0.39	0.12	12.8	4.58
100 µM	0.294	0.143	10.4	5.53

NC(O)(C(F)(F)F)C(F)(F)F [2-Aminohexafluoropropan-2-ol]
Details	mean angular velocity of exposed larvae, [3]	mean angular velocity of exposed larvae, [4]	mean distance moved of exposed larvae, [1]	mean distance moved of exposed larvae, [2]
0.015 µM	0.62	0.0444	17.5	1.1
0.046 µM	0.444	0.0195	11.4	0.932
0.14 µM	0.508	0.0424	13	0.925
0.41 µM	0.552	0.0293	13	0.917
1.23 µM	0.344	0.00969	6.93	0.251
3.7 µM	0.702	0.0543	18.8	1.12
11.1 µM	0.423	0.0181	11.2	0.717
33.3 µM	0.702	0.0369	18.3	1.18
66.5 µM	0.491	0.0243	14.6	0.668
100 µM	0.969	0.0458	27.2	0.989
